For orientation: inhibition means the change of the read-out against control, counted positive when it falls. As usually defined, the Ki is a dissociation constant, usually derived from enzyme kinetics or from competition with a known ligand. What is called IC50 is the concentration needed to halve the response being measured.

T1 sequence (Q8NER1 whole entry): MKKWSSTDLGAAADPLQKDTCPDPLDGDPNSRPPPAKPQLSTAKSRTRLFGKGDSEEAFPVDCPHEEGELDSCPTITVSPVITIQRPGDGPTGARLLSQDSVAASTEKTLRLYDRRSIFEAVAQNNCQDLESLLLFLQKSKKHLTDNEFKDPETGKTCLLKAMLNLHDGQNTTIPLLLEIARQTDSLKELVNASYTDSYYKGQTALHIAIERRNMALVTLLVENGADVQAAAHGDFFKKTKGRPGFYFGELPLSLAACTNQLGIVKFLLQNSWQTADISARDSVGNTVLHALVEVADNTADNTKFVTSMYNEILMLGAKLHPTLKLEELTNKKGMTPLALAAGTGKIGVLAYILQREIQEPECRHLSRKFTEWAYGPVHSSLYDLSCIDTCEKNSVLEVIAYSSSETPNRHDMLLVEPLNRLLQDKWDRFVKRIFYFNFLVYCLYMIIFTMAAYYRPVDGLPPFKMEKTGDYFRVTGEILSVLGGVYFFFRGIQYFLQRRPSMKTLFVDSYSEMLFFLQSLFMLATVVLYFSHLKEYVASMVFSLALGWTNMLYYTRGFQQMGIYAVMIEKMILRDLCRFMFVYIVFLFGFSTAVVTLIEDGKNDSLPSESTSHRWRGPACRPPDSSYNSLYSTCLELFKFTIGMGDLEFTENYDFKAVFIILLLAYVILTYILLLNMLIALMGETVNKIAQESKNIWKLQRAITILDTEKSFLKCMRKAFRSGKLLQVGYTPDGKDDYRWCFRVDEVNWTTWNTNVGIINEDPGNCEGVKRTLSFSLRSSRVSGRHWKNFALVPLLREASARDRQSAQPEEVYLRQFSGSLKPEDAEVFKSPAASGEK

One assay addresses T1, vanilloid receptor 1 (VR1/TRPV1 receptor) (Homo sapiens, UniProt Q8NER1).
T1 construct: expressed in transfected cells; host or cells: CHO K1 cells (ECACC), stably transfected
Put plainly: VR1/TRPV1 receptor affinity, capsaicin stimulus (human). As to conditions: @ 5 μM, Tables 8-12, read-out: (f) Ki (human being) [nM] Cap: inhibition (as a percentage). It is filed as cell-based, human being. Also noted: key to (f) Ki (human being) [nM] Cap: result in words: AG=agonist; pAG=partial agonist; NE=no effect.
As for `CC(C)(C)c1cc(CNC(=O)Nc2ccc(C(=O)N3CCOCC3)c(F)c2)n(-c2cccc(Cl)c2)n1` [Example E14, 1-[[5-tert-Butyl-2-(3-chlorophenyl)-2H-pyrazol-3-yl]-methyl]-3-[3-fluoro-4-(morpholine-4-carbonyl)-phenyl]-urea], the inhibition at 5 µM was determined as 38%.
Still for that read-out and setting: next, `CC(C(=O)NCc1cc(C(C)(C)C)nn1-c1cccc(Cl)c1)c1ccc(C(=O)N2CCOCC2)c(F)c1` (stereo not drawn) [Example E17, N-[[5-tert-Butyl-2-(3-chlorophenyl)-2H-pyrazol-3-yl]-methyl]-2-[3-fluoro-4-(morpholine-4-carbonyl)-phenyl]-propionamide]: 42%.

Staying with this assay, now noted: Tables 8-12.
Take `CC(C)(C)c1cc(CNC(=O)Nc2ccc(OCC(O)CO)c(F)c2)n(-c2cccc(Cl)c2)n1` (stereo not drawn) [Example A24, 1-[[5-tert-Butyl-2-(3-chlorophenyl)-2H-pyrazol-3-yl]-methyl]-3-[4-(2,3-dihydroxy-propoxy)-3-fluoro-phenyl]-urea]: the “(f) Ki (human being) [nM] Cap: result in words” value is “AG”.
Still for that read-out and setting: for `CC(C(=O)NCc1cc(C(C)(C)C)nn1-c1cccc(Cl)c1)c1ccc(C(O)CO)c(F)c1` (stereo not drawn) [Example A145, N-[[5-tert-Butyl-2-(3-chlorophenyl)-2H-pyrazol-3-yl]-methyl]-2-[4-(1,2-dihydroxy-ethyl)-3-fluoro-phenyl]-propionamide] the value was “AG”.
Same read-out and setting: next, `CC(C(=O)NCc1cc(C(F)(F)F)nn1-c1cccc(C(F)(F)F)c1)c1ccc(CO)c(F)c1` (stereo not drawn) [Example A48, 2-[3-Fluoro-4-(hydroxymethyl)-phenyl]-N-[[5-(trifluoromethyl)-2-[3-(trifluoromethyl)phenyl]-2H-pyrazol-3-yl]-methyl]-propionamide]: “AG”; `CC(C(=O)NCc1cc(C(C)(C)C)nn1-c1cccc(Cl)c1)c1ccc(CCO)c(F)c1` (stereo not drawn) [Example A139, N-[[5-tert-Butyl-2-(3-chlorophenyl)-2H-pyrazol-3-yl]-methyl]-2-[3-fluoro-4-(2-hydroxy-ethyl)-phenyl]-propionamide]: “AG”.
Same read-out and setting: next, `CC(C(=O)NCc1cc(C(C)(C)C)nn1-c1ccc(F)c(Cl)c1)c1ccc(CO)c(F)c1` (stereo not drawn) [Example A41, N-[[5-tert-Butyl-2-(3-chloro-4-fluoro-phenyl)-2H-pyrazol-3-yl]-methyl]-2-[3-fluoro-4-(hydroxymethyl)-phenyl]-propionamide]: “AG”.
In the case of `COCCOc1ccc(NC(=O)NCc2cc(C(C)(C)C)nn2-c2cccc(Cl)c2)cc1F` [Example A17, 1-[[5-tert-Butyl-2-(3-chlorophenyl)-2H-pyrazol-3-yl]-methyl]-3-[3-fluoro-4-(2-methoxy-ethoxy)-phenyl]-urea], the “(f) Ki (human being) [nM] Cap: result in words” value was “AG”.

Still in this assay, the particulars now being: Tables 8-12, read-out: (f) Ki (human being) [nM] Cap.
Take `CC(C(=O)NCc1cc(C(F)(F)F)nn1-c1cccc(Cl)c1)c1ccc(CN(C)S(C)(=O)=O)c(F)c1` (stereo not drawn) [Example B29, N-[[2-(3-Chlorophenyl)-5-(trifluoromethyl)-2H-pyrazol-3-yl]-methyl]-2-[3-fluoro-4-[(methyl-methylsulfonyl-amino)-methyl]-phenyl]-propionamide]: the Ki came to 59 nM.
Turning to `CS(=O)(=O)NCc1ccc(NC(=O)NCc2cc(C(F)(F)F)nn2-c2cccc(Cl)c2)cc1` [Example B81, 1-[[2-(3-Chlorophenyl)-5-(trifluoromethyl)-2H-pyrazol-3-yl]-methyl]-3-[4-(methanesulfonamido-methyl)-phenyl]-urea], the Ki was determined as 33 nM.
Same read-out and setting: for “4-[1-[[2-(3-Chlorophenyl)-5-(trifluoromethyl)-2H-pyrazol-3-yl]-methyl-carbamoyl]-ethyl]-2-fluoro-N-(oxetan-3-yl)-benzamide [Example E19]” the value was 41 nM.
On the same count and under the same terms, for “N-(4-Chlorophenyl)-4-[1-[[2-(3-chlorophenyl)-5-(trifluoromethyl)-2H-pyrazol-3-yl]-methyl-carbamoyl]-ethyl]-2-fluoro-benzamide [Example E46]” the value was 2 nM; for `CC(C)(C)c1cc(CNC(=O)Nc2ccc(CNS(N)(=O)=O)cc2)n(-c2cccc(F)c2)n1` [Example B56, 1-[[5-tert-Butyl-2-(3-fluorophenyl)-2H-pyrazol-3-yl]-methyl]-3-[4-[(sulfamoylamino)-methyl]-phenyl]-urea], 56 nM.
The same measure, in the same setting: for `CC(C(=O)NCc1cc(C(C)(C)C)nn1-c1ccc(F)c(Cl)c1)c1ccc(N2CCCS2(=O)=O)c(F)c1` (stereo not drawn) [Example C2, N-[[5-tert-Butyl-2-(3-chloro-4-fluoro-phenyl)-2H-pyrazol-3-yl]-methyl]-2-[4-(1,1-dioxo-[1,2]thiazolidin-2-yl)-3-fluoro-phenyl]-propionamid] the value was 50 nM; for `COc1cccc(-n2nc(C(F)(F)F)cc2CNC(=O)Nc2ccc(CNS(C)(=O)=O)c(F)c2)c1` [Example B58, 1-[3-Fluoro-4-(methanesulfonamido-methyl)-phenyl]-3-[[2-(3-methoxyphenyl)-5-(trifluoromethyl)-2H-pyrazol-3-yl]-methyl]-urea], 16 nM.
For `CC(C(=O)NCc1cc(C(C)(C)C)nn1-c1cccc(Cl)c1)c1ccc(CN(C)S(C)(=O)=O)c(F)c1` (stereo not drawn) [Example B30, N-[[5-tert-Butyl-2-(3-chlorophenyl)-2H-pyrazol-3-yl]-methyl]-2-[3-fluoro-4-[(methyl-methylsulfonyl-amino)-methyl]-phenyl]-propionamide], the Ki amounted to 39 nM.
Still for that read-out and setting: next, `CC(C)c1cccc(-n2nc(C(F)(F)F)cc2CNC(=O)C(C)c2ccc(CNS(N)(=O)=O)c(F)c2)c1` (stereo not drawn) [Example B94, 2-[3-Fluoro-4-[(sulfamoylamino)-methyl]-phenyl]-N-[[2-(3-isopropyl-phenyl)-5-(trifluoromethyl)-2H-pyrazol-3-yl]-methyl]-propionamide]: 0.9 nM; `CC(C(=O)NCc1cc(C(F)(F)F)nn1-c1cccc(Cl)c1)c1ccc(CNS(C)(=O)=O)cc1` (stereo not drawn) [Example B5, N-[[2-(3-Chlorophenyl)-5-(trifluoromethyl)-2H-pyrazol-3-yl]-methyl]-2-[4-(methanesulfonamido-methyl)-phenyl]-propionamide]: 9 nM; “4-[[[5-tert-Butyl-2-(3-chlorophenyl)-2H-pyrazol-3-yl]-methyl-carbamoyl]-methyl]-N-[4-(trifluoromethyl)-phenyl]-benzamide [Example E50]”: 12 nM.

Another assay deals with T1, vanilloid receptor 1 (VR1/TRPV1 receptor). The assay is described as follows: VR1/TRPV1 receptor affinity, NADA stimulus (human). It is filed as cell-based. As to conditions: N-arachidonoyl dopamine; read-out: Ki (human being) [nM] NADA.
As to `CCCCCCn1nc(C(C)(C)C)cc1CNC(=O)C(C)c1ccc(NS(C)(=O)=O)c(F)c1` (stereo not drawn) [Example 5, N-((3-tert-butyl-1-hexyl-1H-pyrazol-5-yl)methyl)-2-(3-fluoro-4-(methylsulfonamido)phenyl)propanamide], the Ki stood at 4.99 nM.
In the case of `CC(C(=O)NCc1cc(C(C)(C)C)nn1-c1ccc(F)c(Cl)c1)c1ccc(NS(C)(=O)=O)c(F)c1` (stereo not drawn) [Example 18, N-((3-tert-butyl-1-(3-chloro-4-fluorophenyl)-1H-pyrazol-5-yl)methyl)-2-(3-fluoro-4-(methylsulfonamido)phenyl)propanamide], the Ki amounted to 0.22 nM.
On the same count and under the same terms, for `CC(C(=O)NCc1cc(C(C)(C)C)nn1-c1cccc(Cl)c1)c1cc(F)c(NS(C)(=O)=O)c(F)c1` (stereo not drawn) [Example 29, N-((3-tert-butyl-1-(3-chlorophenyl)-1H-pyrazol-5-yl)methyl)-2-(3,5-difluoro-4-(methylsulfonamido)phenyl)propanamide] the value was 0.08 nM.

The next assay shares this target. Put plainly: VR1 inhibition, 45° C. heat stimulus (human). The assay is classed as cell-based, human being. On the set-up: key to IC50 (human being) [nM], 45° C.: result in words: AG=agonist; pAG=partial agonist; NE=no effect.
Settings: not given
Regarding `CC(C(=O)NCc1cc(C(C)(C)C)nn1-c1cccc(Cl)c1)c1ccc(S(=O)(=O)N(C)C)c(F)c1` (stereo not drawn) [Example 56, N-((3-tert-butyl-1-(3-chlorophenyl)-1H-pyrazol-5-yl)methyl)-2-(4-(N,N-dimethylsulfamoyl)-3-fluorophenyl)propanamide], the “IC50 (human being) [nM], 45° C.: result in words” value is recorded as “AG”.

Staying with this assay, now noted: read-out: IC50 (human being) [nM], 45° C.
As for `Cc1c(C(F)(F)F)nn(-c2cccc(Cl)c2)c1CNC(=O)C(C)c1ccc(CNS(C)(=O)=O)c(F)c1` (stereo not drawn) [Example 134, N-((1-(3-chlorophenyl)-4-methyl-3-(trifluoromethyl)-1H-pyrazol-5-yl)methyl)-2-(3-fluoro-4-(methylsulfonamid-methyl)phenyl)propanamide], the IC50 was 546 nM.

The values are drawn from patent US9624209B2, “Substituted phenylureas and phenylamides as vanilloid receptor ligands” (Gruenenthal GmbH, priority 2009, dated 2017).
